# Tested on: hES cells
# Assay: Hepatocyte differentiation of hES cells, morphology
# Assay type: cell-based, human
# Conditions: 4 days in medium containing butyrate (after 1% DMSO pre-differentiation)
# Source text: Undifferentiated hES cells were differentiated into cells having characteristics of human hepatocytes using a strategy to initiate a global differentiation process using DMSO in a subconfluent culture. The cells are then induced to form hepatocyte-like cells by the addition of Na-butyrate.
# Briefly, the hES cells were maintained in undifferentiated culture conditions for 2-3 days after splitting. At this time, the cells were 50 to 60% confluent and the medium was exchanged with unconditioned SR medium containing 1% DMSO (Step II). The cultures were fed daily with SR medium for 4 days and then exchanged into unconditioned SR medium containing both 1% DMSO and […] Na-butyrate, with which they were fed daily for 6 days (Step III). They were then replated onto collagen, and cultured in a hepatocyte maturation medium containing a cocktail of hepatocyte-friendly growth factors (Step IV).
compound,measurement,setting,value
"CCCC(=O)[O-].[Na+] [butyrate, sodium n-butyrate]",Cells in the culture with large nuclei and granular cytoplasm,,more than 80%
same,Cells in the culture with large nuclei and granular cytoplasm,listed as sodium n-butyrate,More than 80%
